# Reference: PMC6697720, “Saturation of acyl chains converts cardiolipin from an antagonist to an activator of Toll-like receptor-4” (Cellular and Molecular Life Sciences: CMLS, 2019)
# Experiments:
# [1] = biological target: T1, human TLR4/MD2/CD14 (Homo sapiens, UniProt O00206+Q9Y6Y9); assay: Inhibition of LPS-induced NF-κB luciferase reporter in HEK293 cells transfected with human TLR4/MD2/CD14; type: cell-based; conditions: for inhibition of LPS-induced signaling (LPS dose-response, 0 to 1000 ng/mL), mode of action: 1 h CL pre-incubation
# T1 construct: expressed in transfected cells; host or cells: HEK293 (ATCC CRL1573), transient transfection with jetPEI
# T1 sequence (O00206 24-839): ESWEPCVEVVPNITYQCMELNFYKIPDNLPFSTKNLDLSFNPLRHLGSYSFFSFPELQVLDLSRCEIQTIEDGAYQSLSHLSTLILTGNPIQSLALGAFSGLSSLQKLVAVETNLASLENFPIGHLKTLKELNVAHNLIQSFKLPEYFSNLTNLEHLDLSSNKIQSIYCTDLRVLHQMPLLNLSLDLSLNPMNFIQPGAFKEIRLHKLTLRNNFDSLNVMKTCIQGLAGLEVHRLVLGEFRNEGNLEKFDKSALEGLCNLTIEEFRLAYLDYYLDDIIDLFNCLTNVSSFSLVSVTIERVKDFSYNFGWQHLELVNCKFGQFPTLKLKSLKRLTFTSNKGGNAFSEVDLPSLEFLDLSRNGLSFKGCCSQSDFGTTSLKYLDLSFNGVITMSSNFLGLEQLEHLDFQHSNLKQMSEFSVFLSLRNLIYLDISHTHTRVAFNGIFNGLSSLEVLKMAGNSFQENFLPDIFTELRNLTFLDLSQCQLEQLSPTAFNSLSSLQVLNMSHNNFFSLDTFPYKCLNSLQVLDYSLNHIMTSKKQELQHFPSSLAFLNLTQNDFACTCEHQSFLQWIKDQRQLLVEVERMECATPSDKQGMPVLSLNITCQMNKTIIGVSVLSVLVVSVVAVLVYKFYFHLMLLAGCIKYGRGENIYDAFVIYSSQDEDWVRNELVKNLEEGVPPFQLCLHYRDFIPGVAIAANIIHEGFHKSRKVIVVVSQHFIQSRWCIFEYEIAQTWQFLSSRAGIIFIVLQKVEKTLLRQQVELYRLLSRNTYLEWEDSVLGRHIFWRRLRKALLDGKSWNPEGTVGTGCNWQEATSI
# T1 sequence (Q9Y6Y9 19-160): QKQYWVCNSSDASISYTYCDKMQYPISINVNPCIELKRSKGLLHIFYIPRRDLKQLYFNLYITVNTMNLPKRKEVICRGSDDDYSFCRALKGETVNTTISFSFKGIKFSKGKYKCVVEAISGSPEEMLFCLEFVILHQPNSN
# Procedure: Cells were seeded at 4 × 10^4 cells/mL in 96-well plates (200 μL/well) and transiently transfected 4 days later. Expression vectors containing an NF-κB transcription reporter vector-encoding firefly luciferase (10 ng/well pNF-κB-luc from Clontech), and a constitutively active reporter vector-encoding Renilla luciferase (5 ng/well phRG-TK; Promega), together with empty vector (pcDNA3.1 from Invitrogen Cat. N. V79020) and cDNA encoding human membrane CD14 (3 ng/well) and human or murine TLR4 and MD2 (3 ng/well) were mixed with jetPEI (Polyplus transfection Cat.N. 101-10N) and incubated with cells according to the manufacturer’s instructions.
# After treatment supernatants were discarded, cells were washed with PBS and lysed with passive lysis buffer (Promega Cat.N. E1941). Luciferase and Renilla activity on cell lysates were quantified on a BioTek Synergy HT microplate reader using home-made luciferase reagent (20 mM Tricine, 2.67 mM MgSO4·7H2O, 0.265 mM (MgCO3)4Mg(OH)2·5H2O, 0.1 mM EDTA, 33.3 mM DTT, 530 μM ATP, 270 μM Acetyl Coenzyme A (Lithium salt), 470 μM luciferin (Biosynth), pH 7.8, diluted two times in water before use), or coelenterazine (Biosynth) dissolved in ethanol at 1 mg/mL and diluted 500 times in PBS before use as previously described. Firefly and Renilla luciferase activity on cell lysates were normalized, and data were expressed as fold induction as compared to unstimulated conditions.
# In contrast to C16:0 and C18:0, C14:0 CL acted as an agonist in murine but not human cells (Fig. 3), a property similar to that of the LPS variant lipid IVa. to establish whether C14:0, like lipid IVa, is a weak human TLR4 antagonist, we tested the ability of all saturated CLs to inhibit signaling induced by LPS over a range of concentrations. For each CL, cells transfected with human TLR4/MD2/CD14 were pre-incubated with medium alone or two different CL concentrations for 1 h, and then washed and incubated for 6 h with increasing amounts of LPS (from 0 to 1000 ng/mL). […] The dose–response curve of LPS was shifted to the right.
# (§1) Fig. 6 C14:0 is a competitive human TLR4 antagonist. HEK293 cells were transfected with plasmids encoding hTLR4, hMD2, and hCD14 together with a luciferase reporter plasmid dependent on NF-κB activation and a constitutively active reporter vector-encoding renilla luciferase. Two days after transfection, cells were incubated for 1 h with medium alone or the indicated amount of CLs, then washed and incubated 6 h with increasing amount of LPS. Luciferase and renilla were then quantified in cell lysate, and normalized and reported here as fold induction as compared to control. Each bar represents the mean ± standard deviation of three biological replicates (n = 3). Graphs are representative of at least three independent experiments
# as §1, with “7 Unsaturated cardiolipins are” for “6 C14:0 is a”, “antagonists.” for “antagonist.”, “CLs, and” for “CLs,”
# To quantify and compare the potency of CLs as inhibitors, we determined IC50 values in HEK293 cells transfected with human TLR4/MD2/CD14, for each of the antagonists (Fig. 8 and Table 1). […]
# [2] = tested on: RAW-Blue cells; assay: NF-κB activation (SEAP, Quanti-Blue) by CL or LPS in RAW-Blue cells; type: cell-based, murine; conditions: CL alone, overnight
# Procedure: RAW-Blue™ cells were seeded the day before the experiment at 5 × 10^5 cells/mL in 48-well plates (500 μL/well).
# These cells express a secreted embryonic alkaline phosphatase (SEAP) when NF-κB is activated. NF-κB activation was measured by measuring the alkaline phosphatase produced by RAW-Blue™ cells using the Quanti-Blue™ reagent (InvivoGen), according to the manufacturer’s instructions.
# (§2) Fig. 3 Saturated but not unsaturated CLs have pro-inflammatory properties. a RAW-Blue™ cells were incubated overnight with the indicated amount of CL or LPS, supernatants were collected, and NF-κB activation quantified via Quanti-Blue™ test and reported here as fold induction as compared to control. Unpaired t test: differences with respect to the control (Ctrl) are not significant if p > 0.05 (no symbol); *p ≤ 0.0007. b Immortalized BMDM cells were incubated overnight with the indicated amount of CL or LPS; supernatants were collected and TNF-α quantified via ELISA assay. c, d Primary human monocytes were incubated overnight with the indicated amount of CL or LPS with or without the NLRP3 inhibitor MCC950, supernatants were collected, and TNF-α and IL-1β were quantified via ELISA assay. Graphs are representative of experiments from six different donors. Unpaired t test: differences with respect to the control (Ctrl) are not significant if p > 0.05 (no symbol); *p ≤ 0.021. Each bar represents the mean + standard deviation of three biological replicates (n = 3). Graphs are representative of at least three independent experiments
# [3] = tested on: primary human monocytes; assay: TNF-α and IL-1β secretion in primary human monocytes incubated with CL; type: cell-based; conditions: CL alone, overnight
# Procedure: Human monocytes were isolated from PBMCs by immunomagnetic negative selection using the EasySep™ human monocyte enrichment kit without CD16 depletion (STEMCELL™ Technologies).
# 100.000 of freshly isolated PBMCs or monocytes were mixed with stimulants to a final volume of 160 μL/well in round bottom 96-well plates.
# After stimulation, supernatants were collected, centrifuged, and assayed for cytokine secretion, while cells were assayed for viability.
# TNF-α and IP-10 were quantified in cell supernatants using DuoSet ELISA kits from R&D Systems and human IL-1β using Instant ELISA™ Kit from Invitrogen, according to the manufacturer’s instructions. Absorbance was read with a BioTek Synergy HT Microplate Readers.
# as §2
# C18:0 and C18:2 CLs’ pro-inflammatory activities were validated in primary monocytes isolated from human donor blood. C18:0 CL but not C18:2 CL reproduced LPS activity inducing TNF-α and IL-1β secretion in a dose-dependent manner (Fig. 3c, d).
"inhibition of LPS-induced signaling (LPS dose-response, 0 to 1000 ng/mL), mode of action ([1]; washed, 6 h LPS)","inhibition of LPS-induced signaling (LPS dose-response, 0 to 1000 ng/mL), mode of action ([1]; washed, 6 h LPS, listed as C14:0)","IC50 ([1]; HEK293 hTLR4/hMD2/hCD14, 1 h CL, washed, 6 h LPS, Prism fit of Fig. 8 data)","IC50 ([1]; approx., HEK293 human TLR4/MD2/CD14)",SMILES,NF-κB activation [2],IL-1β secretion [3],TNF-α secretion [3]
did not inhibit,–,–,–,CCCCCCCCCCCCCCCCCC(=O)OC[C@H](COP(=O)(O)OCC(O)COP(=O)(O)OC[C@@H](COC(=O)CCCCCCCCCCCCCCCCC)OC(=O)CCCCCCCCCCCCCCCCC)OC(=O)CCCCCCCCCCCCCCCCC (stereo partly drawn) [C18:0 CL],induced,inducing,inducing
competitive inhibitor,competitive TLR4 antagonists,~325 µM,~300 µM,CCCCCCCCCCCCCC(=O)OC[C@H](COP(=O)(O)OCC(O)COP(=O)(O)OC[C@@H](COC(=O)CCCCCCCCCCCCC)OC(=O)CCCCCCCCCCCCC)OC(=O)CCCCCCCCCCCCC (stereo partly drawn) [C14:0 CL],induced,–,–
